Experimental data taken from patent EP4501112A1, “PLANT DEFENSE ELICITORS” (Globachem NV, priority 2023, dated 2025).
Like-named read-outs stand apart in the source and are kept apart here.

Columns and labels:
Assay type in all cases: in vivo
[1] = test system: Winter wheat (cv. Keitum); test: Biostimulant effect of seed coating on winter wheat (greenhouse, root scans)
Description: [table] Table 13. Biostimulant effect of ammonium pelargonate on winter wheat (cv. Keitum) 14 days after sowing

[2] = test system: Leptosphaeria maculans; test: Seed treatment lab trial against Leptosphaeria maculans in oilseed rape seedlings; conditions: for Emax: Plenodomus lingam, in Brassica napus, 144 h, 6 days after inoculation, read-out: % Efficacy
Description: [table] Table 8: Efficacy assessment of fatty acids in seed treatment of Leptosphaeria maculans in oilseed rape (variety Helga)

[3] = test system: Root knot nematode (Meloidogyne graminicola); test: Root knot nematode gall development on wheat roots after treatment; conditions: foliar spraying, stock solution 200 x diluted; 400 J2 per plant 24 hours after treatment; 14 days after inoculation
Method: DISEASE/PEST: Root knot nematode (Meloidogyne graminicola) CROP: Triticum aestivum APPLICATION: Foliar application EXPERIMENT/TRIAL PROTOCOL: After seed germination, wheat plants were grown individually for 2 weeks in a PVC tube (18 cm height, 3 cm diameter) filled with a substrate of sand and a water-absorbing polymer (DCM Aquaperla). Plants were grown at 24 °C and supplied with Hoagland solution and water 3 times per week. They were treated after 2 weeks. Twenty-four hours after treatment they were inoculated with 400 nematode juveniles (second stage; J2) per plant. 8 individual plants were analyzed per treatment. Evaluation of nematode infection was done 14 days after inoculation. Development of galls on the roots was microscopically observed and counted. No females were observed yet at this early time point, in any of the treatments. The number of galls was reduced in the […], pelargonic acid ([…] decanoic acid (pm4) treated plants. Azelaic acid (pm3) had no effect on gall numbers in the used concentration. FORMULATION USED: […] PM1 is already formulated.

[4] = test system: Fusarium culmorum; test: whole plant or invertebrate; conditions: for Emax: Fusarium culmorum, in Triticum aestivum, 144 h, read-out: % Efficacy
[5] = test system: Spodoptera exigua; test: S. exigua survival, larval weight and leaf damage on pea plants after foliar spray; parameters: key to plant damage (1 to 5 scale): 0=no damage or no sucking observed; 1=some damage or some sucking observed; 3=half leaf eaten or half of aphids sucking the leaf; 5=no leaf left or all insects sucking and reproducing; conditions: 0.016 g in 5 mL water with 0.25% tween 20, foliar
Method: DISEASE/PEST: Spodoptera exigua CROP: pea plants (Pisum sativum) APPLICATION: FOLIAR EXPERIMENT/TRIAL PROTOCOL: Peas were grown in pots in the greenhouse (4 plants/pot). […] Plants were sprayed with a small handheld sprayer. 5 ml of spraying volume was applied. First instar (L1) Spodoptera larvae were added to the plants 24h after the treatment. Plant damage, larval survival and larval weight were followed up for 12 days. […] Table 4. Effect on survival and leaf damage of S. exigua on P. sativum.

[6] = seed coating 2 L/mt, 14 days after sowing
[7] = seed coating 2 L/mt, 14 days after sowing, relative to untreated check

Compound: CCCCCCCCC(=O)O.N [Ammonium pelargonate]
- root length, surface and volume, tips and forks per plant ([1]; coated seeds compared with untreated seedlings): Seeds coated with ammonium pelargonate showed an increase in root length, surface and volume and an increase in tips and forks per plant. (Table 12)
- Forks (#/plant) [1, 6]: 330.70 #/plant
- Fresh weight (g/plant) [1, 6]: 0.53 g/plant
- Plant height (cm) [1, 6]: 22.5 cm
- Root diameter (mm) [1, 6]: 0.27 mm
- Root length (cm) [1, 6]: 142.1 cm
- Root surface (cm^2) [1, 6]: 11.90 cm^2
- Root volume (cm^3) [1, 6]: 0.08 cm^3
- Tillers (#/plant) [1, 6]: 0.40 #/plant
- Tips (#/plant) [1, 6]: 1585.20 #/plant
- Forks (%UNCK) [1, 7]: 146.65 %UNCK
- Fresh weight (%UNCK) [1, 7]: 99.81 %UNCK
- Plant height (%UNCK) [1, 7]: 100.9 %UNCK
- Root diameter (%UNCK) [1, 7]: 95.08 %UNCK
- Root length (%UNCK) [1, 7]: 131.5 %UNCK
- Root surface (%UNCK) [1, 7]: 124.21 %UNCK
- Root volume (%UNCK) [1, 7]: 117.23 %UNCK
- Tips (%UNCK) [1, 7]: 120.36 %UNCK

Compound: O=C(O)CCCCCCCC(=O)O [Azaleic acid, Azelaic acid]
- Emax ([2]; seed treatment 1.52 g/ton): 100%
- Emax ([2]; seed treatment 2.28 g/ton): 100%
- Emax ([2]; seed treatment 3.04 g/ton): 100%
- Emax ([2]; seed treatment 4.56 g/ton): 80%
- Emax ([2]; seed treatment 6.08 g/ton): 80%
- Emax ([2]; seed treatment 7.60 g/ton): 80%
- number of galls [3]: no effect

Compound: CCCCCCCC(=O)O [Caprylic acid, caprylic acid]
- Emax ([4]; seed treatment 6.08 g/ton): 80%
- Emax ([4]; seed treatment 7.60 g/ton): 80%
- Emax ([2]; seed treatment 7.60 g/ton): 80%
- number of galls [3]: reduced

Compound: CCCCCCCCCC(=O)O [Decanoic acid, decanoic acid]
- Emax ([4]; seed treatment 4.56 g/ton): 60%
- Emax ([4]; seed treatment 6.08 g/ton): 60%
- Emax ([4]; seed treatment 7.60 g/ton): 80%
- Emax ([2]; seed treatment 2.28 g/ton): 80%
- Larval weight at day 12 ([5]; L1 larvae added 24h after treatment): 196 mg
- Number of larvae after 12 days ([5]; L1 larvae added 24h after treatment, 22 larvae at start): 18
- plant damage (1 to 5 scale) ([5]; followed up for 12 days): 1
- number of galls [3]: reduced

Compound: Ammonium percholate
- % efficacy ([4]; in vivo): 60%
- % efficacy ([2]; in vivo): 70%
